Several values for one entry are separate records, joined by “and”; a condition that tells them apart may be missing. Equal entries are not always repeated.
Columns and labels:
[1] = test system: aphids (Schizaphis gramium); assay: Treated filter paper knockdown (KD) and mortality trial (Example 4); format: in vivo; conditions: Nootkatone 1% in ethanol on filter paper
Procedure: (§1) A laboratory trial was conducted to assess the efficacy of nootkatone applied to filter paper against aphids (Schizaphis gramium), dust mites (Dermatophagoides sp.), termites (Reticulitermes flavipes), deer ticks (Ixodes scapularis), biting midges (Culicoides sp.), fire ants (Solenopsis invicta), and mosquitoes (Aedes aegypti and Culex), in terms of knockdown (KD) and mortality. One concentration (1% in ethanol) of nootkatone was assessed for most species, but three concentrations (0.25%, 0.5%, and 1% in ethanol) were assessed for mosquitoes. A negative control group, consisting of filter paper treated with ethanol, was also assessed for comparison purposes for each species.
(§2) Test systems were introduced to treated filter paper, allowed to dry, and then introduced into treatment chamber, where treated arthropods were monitored at intervals up to 72 hours. If 100% mortality was obtained prior to 72 hours, the individual study was halted.
(§3) Readings were discontinued if treated mortality reaches […], or control mortality exceeds 20%.

[2] = test system: fire ants (Solenopsis invicta); assay: as above; format: in vivo; conditions: Nootkatone 1% in ethanol on filter paper
Procedure: as §1, §2
Fire ants—5 replicates of 10 insects were tested per treatment. A Petri dish lid 3.54 inches (9 cm) in diameter was inverted and serve as the substrate for a 2.75 inch (7 cm) treated filter paper circle. The small Petri dish bottom was inverted over the paper and had its sides treated with Fluon® to prevent climbing and force exposure with the filter paper. The entire Petri dish was enclosed with two rubber bands.
as §3

[3] = test system: termites (Reticulitermes flavipes); assay: Filter paper choice test of repelling action (Example 6); format: in vivo
Procedure: An in vitro laboratory trial was required to assess the repelling action of nootkatone applied to filter paper against cat fleas (Ctenocephalides felis), deer ticks (Ixodes scapularis), bed bugs (Cimex lectularius), and termites (Reticulitermes flavipes) in a choice test design.
The sponsor provided a sample of nootkatone (98%), which was diluted in ethanol to a 0.5% concentration. The treatment was applied to filter paper at a rate of 1 mL for a 9 cm filter paper disc, and a rate of 1.9 mL for a 15 cm filter paper disc. A negative control group, consisting of untreated filter paper, was also assessed for comparison purposes.
(§4) Termites: One long glass tube with screened ends (to provide ventilation) was used for each test container. Test containers were placed into a larger container to prevent escapes, and were kept in darkness and at high humidity for the duration of the experiment. Treated and untreated filter papers were cut into strips and fitted inside the glass tubes. Treated replicates received one treated and one untreated paper; negative control replicates received two untreated strips. The two paper strips were pushed end to end to form one continuous strip, leaving a 2 mm gap running the entire length of the tube for viewing termite activity.
Termites: Termites were placed in the center of each test container and left to distribute undisturbed for 24 hours. At the end of the exposure period, the distribution (on or under each filter paper) of termites was recorded.
The number of insects in each location was converted to a percentage, for which the average and standard error were calculated across all five replicates.
Percent repellency was calculated with the following formula: % repellency=(1−((t/T)/(c/C)))*100 • Where t=number of insects on treated side of treated arena • T=total number of insects in treated arena • c=average number of insects on right side of untreated arenas • C=average total number of insects in untreated arenas

[4] = test system: mosquitoes (Aedes aegypti and Culex); assay: Treated filter paper knockdown (KD) and mortality trial (Example 4), statements on both mosquito species; format: in vivo
Procedure: as §1, §2
Midges and mosquitoes—5 replicates of 10 insects per treatment were tested. Inverted 10 ounce (295 ml) clear plastic cups with a 0.5 inch (1.27 cm) hole burned into the center of the bottom, and with the sides coated with Fluon® was used at the treatment containers. The bottoms of the containers consisted of Petri dish lids 3.54 inches (9.0 cm) in diameter lined with a treated filter paper circle the same diameter. The cup was placed over the filter paper in the lid and both were secured in place using 2 rubber bands. The insects were introduced through the hole in the cup, and a plastic disc was placed over the opening to prevent escapes.
as §3

Ae. aegypti mosquitoes = assay: Continuous exposure to treated filter paper, knockdown and mortality (Example 3); format: in vivo, Aedes aegypti; conditions: 1% nootkatone in ethanol on filter paper
Procedure: In the following example, the effectiveness of a 1% nootkatone composition in killing Ae. aegypti mosquitoes was determined.
A composition of 1% nootkatone formulated in ethanol was added to filter paper, which was then introduced into a Fluon®-coated container. Ten Ae. aegypti mosquitoes were added to the container and observed at 30 min, 1, 4, and 24 hr. Five replicates were performed. […] An untreated population was observed as a negative control.

[5] = test system: termites (Reticulitermes flavipes); assay: Treated filter paper knockdown (KD) and mortality trial (Example 4); format: in vivo; conditions: Nootkatone 1% in ethanol on filter paper
Procedure: as §1, §2
as §4, with “Termites—3 replicates of 10 termites were tested per treatment.” for “Termites:”, “Filter” for “Treated and untreated filter”, “Two” for “Treated replicates received one treated and one untreated paper; negative control replicates received two untreated strips. The two”
as §3

[6] = 0.5% nootkatone in ethanol, 24 Hours post introduction, Replicates 1-3

## C=C(C)[C@@H]1CCC2=CC(=O)C[C@@H](C)[C@]2(C)C1 [Nootkatone, nootkatone]
[1]
  Time required for greater than 90% killing: 30 min
[1]; 30 minutes post introduction
  Means Affected: 100.0%
  Means Dead: 100% and 94.0%
  Means KD: 6.0%
[2]
  Time required for greater than 90% killing: 24 h
[2]; 30 minutes post introduction
  Means Affected: 0.0%
  Means Dead: 0.0%
  Means KD: 0.0%
[2]; 1 hour post introduction
  Means Affected: 0.0%
  Means Dead: 0.0%
  Means KD: 0.0%
[2]; 4 hours post introduction
  Means Affected: 22.0%
  Means Dead: 0.0%
  Means KD: 22.0%
[2]; 24 hours post introduction
  Means Affected: 100.0%
  Means Dead: 100%
  Means KD: 0.0%
[2]; 24 hours post introduction, listed as nootkatone
  Means Dead: 100%
[3]; 0.5% nootkatone in ethanol on filter paper
  Repellency (conclusion in words): highly repellent
[3]; [6]
  Raw data: number of termites on Treated strip of treated tube, per replicate: 0
  Raw data: number of termites on Untreated strip of treated tube, per replicate: 10
[3]; nootkatone (98%) 0.5% in ethanol on filter paper strips, one treated, one untreated, 24 hours
  Calculated percent repellency (average ± SE): 100.0 ± 0.0%
[4]; Nootkatone 0.25% in ethanol on filter paper, the lowest tested concentration
  Mortality in mosquitoes: less than 80%
[4]; Nootkatone 1% in ethanol on filter paper
  Time required for greater than 90% killing: 24 h
[4]; Nootkatone 1% in ethanol on filter paper, by 8 hours post treatment
  Affected (knockdown+mortality) mosquitoes in both species: at least 80%
[4]; Nootkatone at 1% concentration in ethanol on filter paper, both mosquito species
  Mortality in mosquitoes during the experimental duration: 94-100%
[4]; nootkatone 0.5% in ethanol on filter paper, by 72 hours post treatment
  Mortality in both mosquito species: 82-95%
Ae. aegypti mosquitoes; after 1 hr
  Knockdown rate after 1 hr relative to 30 min: more than doubled
Ae. aegypti mosquitoes; after 4 hr
  Knockdown rate: greater than 90%
Ae. aegypti mosquitoes; continuous exposure
  Exposure time after which mosquitoes begin to be affected: 30 min
  Exposure time at which knockdown was complete (FIG. 5): < 24 h
Ae. aegypti mosquitoes; continuous exposure 24 hr
  Average percent of mosquitoes affected (FIG. 3): All mosquitoes were affected
[5]
  Time required for greater than 90% killing: 72 h
[5]; 30 minutes post introduction
  Means Affected: 0.0%
  Means Dead: 0.0%
  Means KD: 0.0%
[5]; 1 hour post introduction
  Means Affected: 0.0%
  Means Dead: 0.0%
  Means KD: 0.0%
[5]; 4 hours post introduction
  Means Affected: 0.0%
  Means Dead: 0.0%
  Means KD: 0.0%
[5]; 24 hours post introduction
  Means Affected: 83.3%
  Means Dead: 0.0%
  Means KD: 83.3%
[5]; 48 hours post introduction
  Means Affected: 86.7%
  Means Dead: 86.7%
  Means KD: 0.0%
[5]; 72 hours post introduction
  Means Affected: 90.0%
  Means Dead: 90%
  Means KD: 0.0%

— patent US11800867B2, “Methods of repelling biting arthropods, reducing pathogen spread and treating arthropod infestation” (priority 2016, dated 2023)
